Results: patent EP4552639A1, “COMPOUNDS FOR USE IN THE TREATMENT OF GASTROINTESTINAL STROMAL TUMOR (GIST)” (priority 2023, dated 2025)

System: KIT/PDGFRA-mutated cell lines
Assay: Cell viability assay (GR50)
Format: cell-based
Conditions: Figure 2
Procedure: Cell viability assays were performed as previously described (Grunewald, S., et al., Resistance to avapritinib in PDGFRA-driven GIST is caused by secondary mutations in the PDGFRA kinase domain. Cancer Discov, 2020). To generate the results presented in Figures 2 and 3, cells were plated at 4000-16000 cells/well in a 96-well plate and cultured overnight. Cells were then incubated in triplicates with media containing inhibitors or solvent control (DMSO) for 72 hours. The sulforhodamine B (SRB) assay was used according to the method of Skehan and colleagues (Skehan, P., et al., New colorimetric cytotoxicity assay for anticancer-drug screening. J.Natl.Cancer Inst., 1990. 82(13): p. 1107-1112).
To generate the results in for the KIT-driven cell lines (GIST-T1; T1-D816E, and T1-V654A) in Figures 1, 6, 7, and 8, cells were plated in triplicates at 400 cells/well in a 384-well plate with media containing inhibitors or solvent control (DMSO) and incubated for 72 hours. The Cell Titer Glo assay (Promega) was applied according to manufacturer's instructions. Absorption or luminescence was measured with a SPARK™ Plate reader (Tecan, Switzerland). One measurement of untreated cells at the at the start of treatment served as baseline for growth reduction (GR) calculations. […]

SMILES: NC(=O)Nc1cc(-c2cccc(F)c2)sc1C(=O)N[C@H]1CCCNC1 [Preparation Example 3a.1, (S)-5-(3-fluorophenyl)-N-(piperidin-3-yl)-3-ureidothiophene-2-carboxamide]
- cellular GR50 (concentration of a drug that reduces cell growth rate by half): 1 to 30 nM
